# From US20140259191A1, “FISH ANESTHETIC AND METHOD” (AQUA-MOR TECHNOLOGIES LTD., priority 2011, published 2014)
# Key:
# Guppy fish = assay: Anesthesia of guppy fish by linalool or Ho Wood oil added to tank water; format: in vivo
# Experimental: A one year old koi fish of body length 11 cm and which appeared to be healthy was placed in a 4 liter tank containing water at 25° C. and in which the water was circulated by means of aeration. A liquid a mixture containing 1 wt. % synthetic linalool (1 wt. % linalool, 5 wt. % 14R, 2 wt. % AF80 and 92 wt. % water) was added to the tank and manually mixed with the water so that the concentration of linalool in the water was 50 ppm. This was regarding as the starting time of the experiment; thereafter, observations were made regularly to determine the behavior of the fish in water. This continued until no response to external stimulation and complete loss of equilibrium were observed, at which point the fish was transferred to a recovery tank containing fresh water. The fish was placed near the air pump, and the time until the fish again swam and responded normally to external stimulation was recorded.
# To a one liter tank containing five guppy fingerlings 21-30 days old of weight 0.010-0.014 g and body length 0.5 cm in water at 30° C. and pH 7 was added a formulation containing 92.5% linalool. The formulation was added to the water to a linalool concentration of 50 ppm in the water. The fish became relaxed 5 minutes after addition of linalool and after 7 minutes were completely anesthetized. At 10 minutes the fish were removed to a recovery tank with fresh water. After two minutes in the recovery tank the fish resumed normal behavior.
# The experiment of Example 21 was repeated, using four 10-month old Guppy fish of respective body lengths 3, 3.5, 4 and 3 cm, and adding the Ho Wood oil to a linalool concentration of 50 ppm in the water. […] At 14.5 minutes the fish were removed to a recovery tank with clean water. After two minutes in the recovery tank they swam around and appeared to have resumed normal activity.
# The experiment of Example 21 was repeated, using four 10-month old Guppy fish of respective body lengths 4, 3.5, 3.5 and 3 cm, and adding the Ho Wood oil to a linalool concentration in the water of 75 ppm instead 50 ppm. […]
# fish = assay: Exposure of fish to linalool at different concentrations and times (survival, anesthesia); format: in vivo
# From the text: As will be appreciated by persons skilled in the art, for a given type of aquatic organism of a given size, there is an inverse (though not necessarily linear) relationship between the concentration of linalool in the water and the amount of time the organism needs to be exposed to the linalool in order to achieve sedation or anesthetization, and similarly there is an inverse (though not necessarily linear) relationship between the linalool concentration and the amount of time an organism may be exposed to the linalool in order before death occurs. […] On the other hand, the same fish were unaffected by exposure to 25 ppm linalool, even for long periods of time.
# carp = assay: Carp exposed to 75 ppm linalool for varying amounts of time, recovery observed; format: in vivo, Cyprinus carpio; parameters: key to recovery state at 13 minutes after introduction of linalool / recovery state at 15 minutes after introduction of linalool / recovery state at 16 minutes after introduction of linalool / recovery state at 17 minutes after introduction of linalool / recovery state at 19 minutes after introduction of linalool / recovery state at 20 minutes after introduction of linalool / recovery state at 21 minutes after introduction of linalool / recovery state at 22 minutes after introduction of linalool / recovery state at 24 minutes after introduction of linalool / recovery state at 25 minutes after introduction of linalool / recovery state at 27 minutes after introduction of linalool / recovery state at 28 minutes after introduction of linalool / recovery state at 29 minutes after introduction of linalool / recovery state at 38 minutes after introduction of linalool / recovery state at 39 minutes after introduction of linalool / recovery state at 40 minutes after introduction of linalool / recovery state at 70 minutes after introduction of linalool / recovery state at 77 minutes after introduction of linalool / recovery state at 78 minutes after introduction of linalool: RT = removed to recovery tank; PR = partial recovery; TR = total recovery
# Experimental: 16 healthy carp (Cyprinus carpio), average weight of 150 g, maintained in 6 liter tanks, were each exposed to 75 ppm of linalool (using the same formulation described in Example 1, 45 g of which were mixed into each treatment tank) for varying amounts of time. Pairs of fish were introduced to linalool simultaneously and then removed to recovery tanks at various times: 3, 8, 12, 15, 20, 30, 40 and 50 minutes after introduction, and each fish's recovery was observed over the course of two consecutive days. Complete anesthesia was achieved after 5 minutes of exposure.
# [1] = Example 17: five guppy fingerlings, 50 ppm linalool (formulation containing 92.5% linalool), 30° C., pH 7
# [2] = carp 150 g, fish still exposed (nos. 3-16)
# [3] = carp, removed to recovery tank at 8 minutes (fish nos. 3, 4)
# [4] = carp, removed to recovery tank at 12 minutes (fish nos. 5, 6)
# [5] = carp, removed to recovery tank at 15 minutes (fish nos. 7, 8)
# [6] = carp, removed to recovery tank at 20 minutes (fish nos. 9, 10)
# [7] = carp, removed to recovery tank at 30 minutes (fish nos. 11, 12)
# [8] = carp, removed to recovery tank at 40 minutes (fish nos. 13, 14)
smiles,measurement,setting,value
C=CC(C)(O)CCC=C(C)C (stereo not shown) [linalool],time after addition of linalool until fish became relaxed,Guppy fish; [1],5 min
same,time until fish completely anesthetized,Guppy fish; [1],7 min
same,time in recovery tank until normal behavior resumed,"Guppy fish; Example 17: guppy fingerlings, 50 ppm linalool, removed at 10 minutes",two
same,effect of exposure,"fish; fish exposed to 25 ppm linalool, even for long periods of time",unaffected
same,survival,fish; fish left for 40 minutes in 100 ppm linalool,did not survive
same,survival,fish; fish left for 50 minutes in 75 ppm linalool,did not survive
same,anesthesia,fish; fish left for five minutes in 100 ppm linalool,effectively anesthetized
same,time of exposure until complete anesthesia,carp; Example 8: carp 150 g,5 min
same,observed state at 5 minutes after introduction of linalool,carp; carp 150 g,Loss of reflex reactivity (stage 5 anesthesia)
same,observed state at 10 minutes after introduction of linalool,carp; carp 150 g,opercular movements slow and irregular
same,observed state at 1 minute after introduction of linalool,"carp; carp 150 g, all fish",Total loss of equilibrium
same,observed state at 3 minutes after introduction of linalool,carp; [2],Total loss of reactivity to all but strong external stimuli
same,observed state at 4 minutes after introduction of linalool,carp; [2],slow but regular opercular rate
same,recovery state at 13 minutes after introduction of linalool,"carp; carp, removed to recovery tank at 3 minutes (fish nos. 1, 2)",TR
same,recovery state at 15 minutes after introduction of linalool,carp; [3],PR
same,recovery state at 16 minutes after introduction of linalool,carp; [3],TR and PR
same,recovery state at 17 minutes after introduction of linalool,carp; [3],TR
same,recovery state at 19 minutes after introduction of linalool,carp; [4],PR
same,recovery state at 20 minutes after introduction of linalool,carp; [4],PR
same,recovery state at 21 minutes after introduction of linalool,carp; [4],TR
same,recovery state at 22 minutes after introduction of linalool,carp; [4],TR
same,recovery state at 24 minutes after introduction of linalool,carp; [5],PR
same,recovery state at 25 minutes after introduction of linalool,carp; [5],TR
same,recovery state at 28 minutes after introduction of linalool,carp; [5],PR
same,recovery state at 29 minutes after introduction of linalool,carp; [5],TR
same,recovery state at 27 minutes after introduction of linalool,carp; [6],PR
same,recovery state at 28 minutes after introduction of linalool,carp; [6],TR
same,recovery state at 38 minutes after introduction of linalool,carp; [7],PR
same,recovery state at 39 minutes after introduction of linalool,carp; [7],TR and PR
same,recovery state at 40 minutes after introduction of linalool,carp; [7],TR
same,recovery state at 70 minutes after introduction of linalool,carp; [8],TR
same,recovery state at 77 minutes after introduction of linalool,carp; [8],PR
same,recovery state at 78 minutes after introduction of linalool,carp; [8],TR
same,recovery of fish nos. 15 and 16,"carp; carp, removed to recovery tank at 50 minutes",Fish nos. 15 and 16 never recovered.
